Article PMC12225012, “Identification and Application of a Novel Patulin Degrading Enzyme From Meyerozyma guilliermondii” (Advanced Science, 2025)

Target: T1, MgSDR1 (Meyerozyma guilliermondii, UniProt A5DPG9)
T1 construct: gene PGUG_05170; pET-30a(+) BamHI/XhoI, N-terminal 6xHis tag, E. coli Rosetta (DE3), imidazole-eluted, approx. 40 kDa with tag; catalytic triad Ser174-Tyr188-Lys192; GXXXGXG and YXXXK motifs
Experiment: degradation kinetics (details in supplement)
Assay type: biochemical
Conditions: co-substrate NADPH; pH and temperature of the kinetic assay not given in the main text

T1 sequence (A5DPG9 entry or part of it): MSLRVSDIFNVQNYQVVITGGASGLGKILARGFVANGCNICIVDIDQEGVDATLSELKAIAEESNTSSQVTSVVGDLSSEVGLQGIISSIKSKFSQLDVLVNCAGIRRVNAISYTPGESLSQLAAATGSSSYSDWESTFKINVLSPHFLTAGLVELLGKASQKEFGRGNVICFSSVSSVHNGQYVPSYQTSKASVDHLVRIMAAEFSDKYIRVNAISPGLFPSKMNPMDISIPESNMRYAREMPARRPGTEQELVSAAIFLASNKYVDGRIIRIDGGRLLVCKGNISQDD

`O=C1C=C2C(=CCOC2O)O1` (stereo not shown) [PAT] showed a Km of 1420 µM.
